In US6534524B1, “Indazole compounds and pharmaceutical compositions for inhibiting protein kinases, and methods for their use” (Agouron Pharmaceuticals, Inc., priority 1999, dated 2003):
pIC50, pKi: −log10 of the molar value. Several values for one entry are separate records, joined by “and”; a condition that tells them apart may be missing. Identical values can stand only once. Like-named read-outs stand apart in the source and are kept apart here. Marks after values point to notes of the source that are not given here.

Experiments:
CDK4/Cyclin D3 complex = CDK4/Cyclin D3 complex (Homo sapiens, UniProt P11802); experiment: CDK4/Cyclin D assay ([32P]ATP, Rb fragment)
[1] = target: phosphorylated VEGF-R2Δ50 (FLVK-P) (Homo sapiens, UniProt P35968, DEL940-989/E990V); experiment: VEGF-R2 coupled spectrophotometric assay, phosphorylated VEGF-R2Δ50 (FLVK-P)
CDK2/Cyclin A = CDK2/Cyclin A (Homo sapiens, UniProt P24941); experiment: CDK2/Cyclin A assay ([32P]ATP, Rb fragment); format: biochemical
human CHK1 (FL-CHK1) = target: T1, human CHK1 (FL-CHK1) (Homo sapiens, UniProt O14757); experiment: CHK1 assay (coupled spectrophotometric, Syntide-2); format: biochemical
T1 construct: C-terminally His-tagged full-length human CHK1 (FL-CHK1); made in house; host or cells: baculovirus/insect cell system
T1 sequence (O14757 1-476): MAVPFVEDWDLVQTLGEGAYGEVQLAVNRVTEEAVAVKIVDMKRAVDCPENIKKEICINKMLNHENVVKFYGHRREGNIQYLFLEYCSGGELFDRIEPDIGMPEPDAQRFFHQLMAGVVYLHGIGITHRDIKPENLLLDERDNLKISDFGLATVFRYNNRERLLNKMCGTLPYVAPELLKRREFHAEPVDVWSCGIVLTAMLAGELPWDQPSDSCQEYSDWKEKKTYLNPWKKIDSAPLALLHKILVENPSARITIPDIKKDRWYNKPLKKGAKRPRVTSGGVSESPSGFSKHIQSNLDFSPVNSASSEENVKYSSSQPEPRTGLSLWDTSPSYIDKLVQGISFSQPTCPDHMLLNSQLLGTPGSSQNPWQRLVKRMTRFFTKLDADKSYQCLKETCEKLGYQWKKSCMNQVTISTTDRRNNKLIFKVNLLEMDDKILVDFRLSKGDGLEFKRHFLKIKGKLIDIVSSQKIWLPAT
Text: CHK1 Construct for Assay: C-terminally His-tagged full-length human CHK1 (FL-CHK1) was expressed using the baculovirus/insect cell system. […] The protein was purified by conventional chromatographic techniques.
The production of ADP from ATP that accompanies phosphoryl transfer to the synthetic substrate peptide Syntide-2 ([…]) was coupled to oxidation of NADH using phosphoenolpyruvate (PEP) through the actions of pyruvate kinase (PK) and lactic dehydrogenase (LDH). The oxidation of NADH was monitored by following the decrease of absorbance at 340 nm (ε340=6.22 cm^−1 mM^−1) using a HP8452 spectrophotometer. […] Assays were initiated with 10 nM of FL-CHK1. Ki values were determined by measuring initial enzyme activity in the presence of varying concentrations of test compounds. The data were analyzed using Enzyme Kinetic and Kaleidagraph software.

human FGF-R1 = human FGF-R1 (Homo sapiens, UniProt P11362, C488A/C584S/L457V); experiment: FGF-R spectrophotometric assay; conditions: for inhibition at 1 µM: read-out: FGF-P % inhibition, Table 1
[2] = target: unphosphorylated VEGF-R2Δ50 (FLVK) (Homo sapiens, UniProt P35968, DEL940-989/E990V); experiment: VEGF-R2 coupled spectrophotometric assay, unphosphorylated VEGF-R2Δ50 (FLVK); conditions: for pKi: FLVK Ki, Table 1; for inhibition at 0.05 µM: read-out: FLVK % inhibition
LCK tyrosine kinase = target: T2, LCK tyrosine kinase (Homo sapiens, UniProt P06239, C224D/P223M); experiment: LCK spectrophotometric assay; format: biochemical; conditions: Table 1, compound concentration 1 μM; for inhibition at 1 µM: read-out: Lck-P % inhibition
T2 construct: starting from amino acid residue 223 to the end of the protein at residue 509; made in house; host or cells: insect cells
Experimental: The production of ADP from ATP that accompanies phosphoryl transfer was coupled to oxidation of NADH using phosphoenolpyruvate (PEP) and a system having pyruvate kinase (PK) and lactic dehydrogenase (LDH). The oxidation of NADH was monitored by following the decrease of absorbance at 340 nm (e340=6.22 cm^−1 mM^−1) using a Beckman DU 650 spectrophotometer. […] Ki values were determined by measuring enzyme activity in the presence of varying concentrations of test compounds. The data were analyzed using Enzyme Kinetic and Kaleidagraph software.
The spectrophotometric assay was carried out as described above for VEGF-R2, except for the following changes in concentration: LCK=60 nM, MgCl2=0 mM, poly(E4Y1)=20 mM.

[3] = Determination of inhibitor concentration in mouse plasma after intraperitoneal and oral dosing; format: in vivo; conditions: for concentration at 7 h: vehicle PEG400:H2O pH 2.3 30:70, read-out: Cmin (7 hr conc.)
Outline: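 Plasma levels quantified by HPLC or LC-MS using a standard curve prepared in mouse plasma, following ethyl acetate extraction with internal standard and sodium hydroxide. Sampling at 0.5, 1, 4 h (ocular bleed) and 7 h (cardiac puncture) after oral or intraperitoneal dosing.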

[4] = system: human umbilical vein endothelial cells (HUVEC); experiment: HUVEC proliferation assay (VEGF-stimulated, MTT); format: cell-based; conditions: Homo sapiens, HUVEC
[5] = Human liver microsome (HLM) assay; format: in vitro ADME; conditions: human liver microsomes, 5 μM test compound
Outline: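 LC-MS quantified test compound remaining after 0 and 2 h incubation with human liver microsomes. Triplicate samples, clarified by 10 min centrifugation at 14000 g.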

[6] = IP, 25 mg/kg, vehicle PEG400:H2O pH 2.3 30:70
[7] = PO, 50 mg/kg, vehicle PEG400:H2O pH 2.3 30:70
[8] = + albumin, read-out: HUVEC + albumin IC50

Sequence of human FGF-R1 (P11362 456-766 L457V/C488A/C584S): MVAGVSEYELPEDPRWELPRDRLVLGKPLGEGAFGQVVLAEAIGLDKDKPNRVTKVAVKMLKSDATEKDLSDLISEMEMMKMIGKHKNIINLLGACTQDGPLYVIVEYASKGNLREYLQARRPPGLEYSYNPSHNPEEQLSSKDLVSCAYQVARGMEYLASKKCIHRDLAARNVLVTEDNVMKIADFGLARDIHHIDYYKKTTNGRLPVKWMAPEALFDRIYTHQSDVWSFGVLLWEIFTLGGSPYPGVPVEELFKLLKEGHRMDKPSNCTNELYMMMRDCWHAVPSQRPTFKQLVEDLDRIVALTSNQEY
T2 sequence (P06239 223-509 P223M/C224D): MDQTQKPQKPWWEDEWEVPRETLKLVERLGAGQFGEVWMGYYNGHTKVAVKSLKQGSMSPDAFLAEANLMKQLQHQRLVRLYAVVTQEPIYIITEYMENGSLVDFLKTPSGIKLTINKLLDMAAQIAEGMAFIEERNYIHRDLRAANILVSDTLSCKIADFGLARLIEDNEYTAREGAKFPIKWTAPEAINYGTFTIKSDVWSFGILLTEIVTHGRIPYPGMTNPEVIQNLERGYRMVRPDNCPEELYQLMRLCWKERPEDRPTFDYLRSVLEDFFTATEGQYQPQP
Sequence of unphosphorylated VEGF-R2Δ50 (FLVK) (P35968 with tags, fused parts or gaps DEL940-989/E990V limits assumed): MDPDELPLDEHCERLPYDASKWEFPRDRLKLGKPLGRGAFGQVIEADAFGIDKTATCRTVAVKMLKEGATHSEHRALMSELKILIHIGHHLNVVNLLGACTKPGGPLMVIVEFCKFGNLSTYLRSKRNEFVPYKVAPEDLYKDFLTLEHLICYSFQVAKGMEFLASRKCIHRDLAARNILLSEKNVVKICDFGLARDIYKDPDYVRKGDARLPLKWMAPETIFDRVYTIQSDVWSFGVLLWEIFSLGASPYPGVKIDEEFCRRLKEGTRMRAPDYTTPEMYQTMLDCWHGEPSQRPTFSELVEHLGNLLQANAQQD
Sequence of phosphorylated VEGF-R2Δ50 (FLVK-P) (P35968 with tags, fused parts or gaps DEL940-989/E990V limits assumed): as above
Sequence of CDK4/Cyclin D3 complex (P11802 whole entry, the tested form may be a part): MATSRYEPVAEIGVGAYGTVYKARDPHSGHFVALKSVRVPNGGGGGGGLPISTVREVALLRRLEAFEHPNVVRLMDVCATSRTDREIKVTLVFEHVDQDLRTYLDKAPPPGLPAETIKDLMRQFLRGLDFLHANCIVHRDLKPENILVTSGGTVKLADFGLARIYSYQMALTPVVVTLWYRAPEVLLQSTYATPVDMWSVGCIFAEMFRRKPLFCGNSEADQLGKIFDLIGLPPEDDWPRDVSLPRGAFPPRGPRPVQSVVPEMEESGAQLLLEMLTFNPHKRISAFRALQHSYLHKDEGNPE
Sequence of CDK4/Cyclin D3 complex (P30281 whole entry partner, the tested form may be a part): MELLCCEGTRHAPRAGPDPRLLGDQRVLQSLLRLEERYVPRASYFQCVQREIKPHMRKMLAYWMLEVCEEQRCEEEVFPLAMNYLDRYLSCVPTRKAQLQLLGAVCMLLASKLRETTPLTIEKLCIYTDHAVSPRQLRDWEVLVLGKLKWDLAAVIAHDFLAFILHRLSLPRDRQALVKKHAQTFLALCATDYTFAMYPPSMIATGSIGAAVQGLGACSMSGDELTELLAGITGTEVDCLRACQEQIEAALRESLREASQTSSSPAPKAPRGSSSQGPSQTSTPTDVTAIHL

`Oc1ccc(-c2ccc3c(-c4nc5ccccc5[nH]4)n[nH]c3c2)c(Oc2ccccc2)c1` [Example 24(g), 3-1H-Benzoimidazol-2-yl-6-(2-phenoxy-4-hydroxyphenyl)-1H-indazole] showed a pKi (CDK4/Cyclin D3 complex) of 7.54, a pKi [1] of 6.71 and a pKi (CDK2/Cyclin A; Table 2) of 6.89.
For `COc1cc(O)ccc1-c1ccc2c(-c3nc4ccccc4[nH]3)n[nH]c2c1` [Example 24(d), 3-1H-Benzoimidazol-2-yl-6-(4-hydroxy-2-methoxyphenyl)-1H-indazole], the pKi (CDK4/Cyclin D3 complex) was 7.77, the pKi [1] was 6.90 and the pKi (human CHK1 (FL-CHK1); Table 2) was 7.25. It also gave a pKi (CDK2/Cyclin A; Table 2) of 7.08.
`O=C(Nc1cc(Nc2ccc3c(/C=C/c4ccccc4)n[nH]c3c2)ccc1F)c1ccccc1` [Example 47, 6-[N-(3-Benzamido-4-fluorophenyl)amino]-3-E-styryl-1H-indazole] gave an inhibition at 1 µM (human FGF-R1; compound concentration 1 μM) of 88%, a pKi [2] of 9.60 and an inhibition at 1 µM (LCK tyrosine kinase) of 50%. The AUClast [3, 6] was 236 ng·h/mL, the Cmax [3, 6] was 39 ng/mL and the “plasma half-life (T1/2)” value [3, 6] was 19.9 h. The AUClast [3, 7] was 327 ng·h/mL, the Cmax [3, 7] was 84 ng/mL and the “plasma half-life (T1/2)” value [3, 7] was 3.4 h.
Molecule `C(=C\c1n[nH]c2cc(Oc3ccccc3)ccc12)/c1ccccc1` [Example 8(a), 3-(E-Styryl)-6-phenoxy-1H-indazole] has a pKi (human FGF-R1) of 7.38, a pKi [2] of 8.49 and a pKi [1] of 7.64. For the same molecule, the pKi (human CHK1 (FL-CHK1); Table 1, read-out: CHK-1 Ki) was 6.28.
With `CCn1nc(C)cc1C(=O)Nc1cc(C(=O)c2ccc3c(/C=C/c4ccccn4)n[nH]c3c2)c(C)cc1C` [Example 41(ll), 6-[2,4-Dimethyl-5-((1-Ethyl-3-methyl-1H-pyrazol-5-yl)carboxamido)benzoyl]-3-E-[2-(pyridin-2-yl)ethenyl]-1H-indazole] the inhibition at 1 µM (human FGF-R1; compound concentration 1 μM) was 91%, the inhibition at 0.05 µM [2] was 95% and the inhibition at 1 µM (LCK tyrosine kinase) was 14%. The pIC50 [4, 8] was 7.64.
`Cc1cc(O)c(Cl)cc1-c1ccc2c(-c3nc4ccccc4[nH]3)n[nH]c2c1` [Example 24(c), 4-[3-(1-H-Benzoimidazol-2-yl)-1-H-indazol-6-yl]-2-chloro-5-methyl-phenol] showed a pKi (CDK4/Cyclin D3 complex) of 8.82, a pKi [1] of 7.85 and a pKi (human CHK1 (FL-CHK1); Table 2) of 7.36. The pKi (CDK2/Cyclin A; Table 2) was 8.47.
In the case of `CC(=O)Nc1cccc(N(C)c2ccc3c(/C=C/c4ccccc4)n[nH]c3c2)c1` [Example 12(a), N-{3-[Methyl-(3-styryl-1H-indazol-6-yl)-amino]-phenyl}-acetamide], the pKi (human FGF-R1) was 7.72, the pKi [2] was 8.74 and the pKi [1] was 8.16. The “% remain (HLM, 2 h)” value [5] was 59%.
For `COc1cc(-c2ccc3c(-c4ccccc4)n[nH]c3c2)ccc1O` [Example 2(b), 3-Phenyl-6-(3-methoxy-4-hydroxy-phenyl)-1H-indazole], the pKi [2] was 6.52, the pKi (CDK4/Cyclin D3 complex) was 5.10 and the pKi [1] was 6.37. For the same molecule, the pKi (CDK2/Cyclin A; Table 1) was 5.66.
Work on `COc1cc(-c2ccc3c(-c4nc5ccccc5[nH]4)n[nH]c3c2)c(C)cc1O` [Example 24(a), 4-[3-(1-H-Benzoimidazol-2-yl)-1-H-indazol-6-yl]-2-methoxy-5-methyl-phenol] yielded a pKi (CDK4/Cyclin D3 complex) of 8.29, a pKi [1] of 7.01 and a pKi (human CHK1 (FL-CHK1); Table 2) of 7.55. For the same molecule, the pKi (CDK2/Cyclin A; Table 2) was 7.77.
Work on `C=CCOc1cc(-c2ccc3c(/C=C/c4ccc(OC)c(OC)c4)n[nH]c3c2)ccc1O` [Example 1(c), 3-[E-2-(3,4-Dimethoxy-phenyl)vinyl]-6-(3-allyloxy-4-hydroxy-phenyl)-1H-indazole] yielded a pKi [2] of 8.85, a pKi (CDK4/Cyclin D3 complex) of 6.17 and a pKi [1] of 8.33. For the same molecule, the pKi (human CHK1 (FL-CHK1); Table 1, read-out: CHK-1 Ki) was 7.11, the pKi (CDK2/Cyclin A; Table 1) was 6.25 and the pIC50 ([4]; read-out: HUVEC IC50) was < 6.00.
Molecule `COc1cc(-c2ccc3c(/C=C/c4ccc(NC(=O)CN)cc4)n[nH]c3c2)ccc1O` [Example 26, 6(4-Hydroxy-3-methoxyphenyl)-3-[E-2-(4-glycylamino-phenyl)-ethenyl]-1H-indazole] has a pKi [1] of 8.96, a pKi (human CHK1 (FL-CHK1); Table 1, read-out: CHK-1 Ki) of 8.18 and a pKi (CDK2/Cyclin A; Table 1) of 8.49.
In the case of `C#CCNC(=O)c1ccccc1Nc1ccc2c(/C=C/c3ccccn3)n[nH]c2c1` [Example 39(b), 6-[2-(Prop-2-ynylcarbamoyl)phenylamino]-3-E-[2-(pyridin-2-yl)ethenyl]-1H-indazole], the inhibition at 1 µM (human FGF-R1; compound concentration 1 μM) was 50%, the inhibition at 1 µM (LCK tyrosine kinase) was 10% and the pIC50 [4, 8] was < 8.00. The “plasma half-life (T1/2)” value ([3]; PO, 25 mg/kg, vehicle PEG400:H2O pH 2.3 30:70) was 11.8 h, the AUC(0-t) ([3]; female, PO, 25 mg/kg, vehicle PEG400:H2O pH 2.3 30:70) was > 31000 ng·h/mL and the Cmax ([3]; female, PO, 25 mg/kg, vehicle PEG400:H2O pH 2.3 30:70, read-out: Cmax) was > 5000 ng/mL. It also gave a concentration at 7 h ([3]; female, PO, 25 mg/kg) of 3150 ng/mL.
For `CN(c1cccc(NC(=O)c2ccccc2)c1)c1ccc2c(/C=C/c3ccccc3)n[nH]c2c1` [Example 12(b), N-{3-[Methyl-(3-styryl-1H-indazol-6-yl)-aimino]-phenyl}-benzamide], the pKi (human FGF-R1) was 7.51, the pKi [2] was 9.32 and the pKi [1] was 8.74.
Work on `CCn1nc(C)cc1C(=O)Nc1cc(Oc2ccc3c(/C=C/c4ncc[nH]4)n[nH]c3c2)ccc1C` [Example 58] yielded an inhibition at 1 µM (human FGF-R1; compound concentration 1 μM) of 98%, an inhibition at 0.05 µM [2] of 98% and an inhibition at 1 µM (LCK tyrosine kinase) of 19%.
In the case of `O=C(c1cccc(NC(=O)C2C[C@H]2c2ccccc2)c1)c1ccc2c(/C=C/c3ccccn3)n[nH]c2c1` (stereo partly drawn) [Example 41(l), 6-[3-((2-RS-trans-Phenylcyclopropyl)carboxamido)benzoyl]-3-E-[2-(pyridin-2-yl)ethenyl]-1H-indazole], the FGF-P % inhibition (human FGF-R1; Table 1, compound concentration 1 μM, 1 µM) was 66%, the inhibition at 1 µM (human FGF-R1; compound concentration 1 μM) was 76% and the pKi [2] was 10.40 and 9.62. For the same molecule, the Lck-P % inhibition (LCK tyrosine kinase; 1 µM) was 38%* and 63%*, the AUClast [3, 6] was 1854 ng·h/mL and the Cmax [3, 6] was 623 ng/mL. The “plasma half-life (T1/2)” value [3, 6] was 3.1 h, the AUClast [3, 7] was 212 ng·h/mL and the Cmax [3, 7] was 104 ng/mL. For the same molecule, the “plasma half-life (T1/2)” value [3, 7] was 0.5 h, the concentration at 7 h ([3]; female, IP, 25 mg/kg) was 102 ng/mL and the concentration at 7 h ([3]; female, PO, 50 mg/kg) was 0 ng/mL.
With `CC(=O)Nc1cccc(Oc2ccc3c(/C=C/c4ccccc4)n[nH]c3c2)c1` [Example 4(b), N-[3-(3-Styryl-1H-indazol-6-yloxy)-phenyl]-acetamide] the pKi (human FGF-R1) was 7.31, the pKi [2] was 8.57 and the pKi [1] was 8.72.
Work on `Cc1cc(C(=O)Nc2cccc(Oc3ccc4c(/C=C/c5ccccn5)n[nH]c4c3)c2)n(C)n1` [Example 57, 6-[3-((1,3-Dimethyl-1H-pyrazol-5-yl)carboxamido)phenoxy]-3-E-[2-(pyridin-2-yl)ethenyl]-1H-indazole] yielded an inhibition at 1 µM (human FGF-R1; compound concentration 1 μM) of 89%, an inhibition at 0.05 µM [2] of 100% and an inhibition at 1 µM (LCK tyrosine kinase) of 30%.
For `C(=C\c1n[nH]c2cc(Sc3ccccc3)ccc12)/c1ccccc1` [Example 8(c)], the pKi [2] was 8.59, the pKi [1] was 7.80 and the pKi (human CHK1 (FL-CHK1); Table 1, read-out: CHK-1 Ki) was < 5.00.
